Measurements taken from patent publication US20230219904A1 (SYNGENTA CROP PROTECTION AG, priority 2020, published 2023).

Experiments:
Type in all cases: in vivo
[1] = tested on: Abutilon theophrasti (ABUTH); test: Pre-emergence herbicidal glasshouse test (Table B1); conditions: evaluated after 13 days
How it was run: (§1)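 Plants were grown in standard soil under controlled glasshouse conditions (24/16° C, 14 hours light, 65% humidity) and treated by spraying at 500 g/h unless otherwise indicated. Percentage damage was evaluated after 13 days and expressed on a five-point scale.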

[2] = tested on: Amaranthus retoflexus (AMARE); test: as above; conditions: evaluated after 13 days
How it was run: as §1

[3] = tested on: Echinochloa crus-galh (ECHCG); test: as above; conditions: evaluated after 13 days
How it was run: as §1

[4] = tested on: Ipomoea hederacea (IPOHE); test: as above; conditions: evaluated after 13 days
How it was run: as §1

Setaria faberi (SETFA) [5] = test: as above; conditions: evaluated after 13 days
How it was run: as §1

[6] = tested on: Abutilon theophrasti (ABUTH); test: Post-emergence herbicidal glasshouse test (Table B1); conditions: evaluated after 13 days
How it was run: as §1

[7] = tested on: Amaranthus retoflexus (AMARE); test: as above; conditions: evaluated after 13 days
How it was run: as §1

[8] = tested on: Echinochloa crus-galh (ECHCG); test: as above; conditions: evaluated after 13 days
How it was run: as §1

[9] = tested on: Ipomoea hederacea (IPOHE); test: as above; conditions: evaluated after 13 days
How it was run: as §1

Setaria faberi (SETFA) [10] = test: as above; conditions: evaluated after 13 days
How it was run: as §1

[11] = tested on: ABUTH (Abutilon theophrasti); test: Comparative test, PRE application (Table B2); conditions: evaluated after 14 days
Method: (§2) TABLE B2—COMPARATIVE TEST
(§3) Seeds of test species were sown in standard soil in pots. After cultivation for one day under controlled conditions in a glasshouse (at 24/16° C., day/night; 14 hours light; 65% humidity), the plants were sprayed with an aqueous spray solution derived from the formulation of the technical active ingredient in 0.6 ml acetone and 45 ml formulation solution containing 10.6% Emulsogen EL (Registry number 61791-12-6), 42.2% N-methyl pyrrolidone, 42.2% dipropylene glycol monomethyl ether (CAS RN 34590-94-8) and 0.2% X-77 (CAS RN 11097-66-8). The test plants were then grown in a glasshouse under controlled conditions in a glasshouse (at 24/16° C., day/night; 14 hours light; 65% humidity) and watered twice daily. After 14 days, the test was evaluated (100=total damage to plant; 0=no damage to plant).
(§4) Test species: ABUTH (Abutilon theophrasti); BRO′I′L (Bromus tectorum); ECHCG (Echinochloa crus-galli); SINAR (Sinapis arvensis).

BROTE (Bromus tectorum) = test: Comparative test, PRE application (Table B2); conditions: evaluated after 14 days
Method: as §2, §3, §4

[12] = tested on: ECHCG (Echinochloa crus-galli); test: Comparative test, PRE application (Table B2); conditions: evaluated after 14 days
Method: as §2, §3, §4

SINAR (Sinapis arvensis) = test: Comparative test, PRE application (Table B2); conditions: evaluated after 14 days
Method: as §2, §3, §4

Row | Compound | PRE Application ABUTH, percentage damage on five-point scale ([1]; applied at 500 g/h) | PRE Application AMARE, percentage damage on five-point scale ([2]; applied at 500 g/h) | PRE Application ECHCG, percentage damage on five-point scale ([3]; applied at 500 g/h) | PRE Application IPOHE, percentage damage on five-point scale ([4]; applied) | PRE Application SETFA, percentage damage on five-point scale (Setaria faberi (SETFA) [5]; applied at 500 g/h) | POST Application ABUTH, percentage damage on five-point scale ([6]; applied at 500 g/h) | POST Application AMARE, percentage damage on five-point scale ([7]; applied at 500 g/h) | POST Application ECHCG, percentage damage on five-point scale ([8]; applied at 500 g/h) | POST Application IPOHE, percentage damage on five-point scale ([9]; applied at 500 g/h) | POST Application SETFA, percentage damage on five-point scale (Setaria faberi (SETFA) [10]; applied at 500 g/h) | damage to plant ABUTH (100=total damage to plant; 0=no damage to plant) ([11]; 30 g/ha) | damage to plant ABUTH (100=total damage to plant; 0=no damage to plant) ([11]; 130 g/ha) | damage to plant ABUTH (100=total damage to plant; 0=no damage to plant) ([11]; 250 g/ha) | damage to plant BROTE (100=total damage to plant; 0=no damage to plant) (BROTE (Bromus tectorum); 30 g/ha) | damage to plant BROTE (100=total damage to plant; 0=no damage to plant) (BROTE (Bromus tectorum); 130 g/ha) | damage to plant BROTE (100=total damage to plant; 0=no damage to plant) (BROTE (Bromus tectorum); 250 g/ha) | damage to plant ECHCG (100=total damage to plant; 0=no damage to plant) ([12]; 30 g/ha) | damage to plant ECHCG (100=total damage to plant; 0=no damage to plant) ([12]; 130 g/ha) | damage to plant ECHCG (100=total damage to plant; 0=no damage to plant) ([12]; 250 g/ha) | damage to plant SINAR (100=total damage to plant; 0=no damage to plant) (SINAR (Sinapis arvensis); 30 g/ha) | also measured
1 | CC(=O)Nc1c(OC(F)(F)F)ccc(C(=O)Nc2nnnn2C)c1Cl [Compound 1.002] | 5 (5=80-100%) | 5 (5=80-100%) | 5 (5=80-100%) | 1 (1=0-19%) | 2 (2=20-39%) | 5 (5=80-100%) | 5 (5=80-100%) | 5 (5=80-100%) | 5 (5=80-100%) | 5 (5=80-100%) | 0 | 10 | 80 | 0 | 10 | 70 | 20 | 30 | 80 | 10 | damage to plant SINAR (100=total damage to plant; 0=no damage to plant) (SINAR (Sinapis arvensis); 130 g/ha): 30; damage to plant SINAR (100=total damage to plant; 0=no damage to plant) (SINAR (Sinapis arvensis); 250 g/ha): 80
2 | CCC(=O)Nc1c(OC(F)(F)F)ccc(C(=O)Nc2nnnn2C)c1Cl [Compound 1.007, 2-chloro-N-(1-methyltetrazol-5-yl)-3-(propanoylamino)-4-(trifluoromethoxy)benzamide] | – | – | – | – | – | – | – | – | – | – | 0 | 60 | 90 | 0 | 0 | 20 | 20 | 70 | 90 | 10 | PRE Application ABUTH, percentage damage on five-point scale ([1]; applied at 125 g/ha): 5 (5=80-100%); PRE Application AMARE, percentage damage on five-point scale ([2]; applied at 125 g/ha): 5 (5=80-100%); PRE Application ECHCG, percentage damage on five-point scale ([3]; applied at 125 g/ha): 5 (5=80-100%); PRE Application IPOHE, percentage damage on five-point scale ([4]; applied at 125 g/ha): 5 (5=80-100%); PRE Application SETFA, percentage damage on five-point scale (Setaria faberi (SETFA) [5]; applied at 125 g/ha): 5 (5=80-100%); POST Application AMARE, percentage damage on five-point scale ([7]; applied at 125 g/ha): 5 (5=80-100%); POST Application ECHCG, percentage damage on five-point scale ([8]; applied at 125 g/ha): 5 (5=80-100%); POST Application IPOHE, percentage damage on five-point scale ([9]; applied at 125 g/ha): 4 (4=60-79%); POST Application SETFA, percentage damage on five-point scale (Setaria faberi (SETFA) [10]; applied at 125 g/ha): 5 (5=80-100%); damage to plant SINAR (100=total damage to plant; 0=no damage to plant) (SINAR (Sinapis arvensis); 130 g/ha): 60; damage to plant SINAR (100=total damage to plant; 0=no damage to plant) (SINAR (Sinapis arvensis); 250 g/ha): 100
3 | Cn1nnnc1NC(=O)c1ccc(OC(F)(F)F)c(NC(=O)c2ccccn2)c1Cl [Compound 1.012, N-[2-chloro-3-[(1-methyltetrazol-5-yl)carbamoyl]-6-(trifluoromethoxy)phenyl]pyridine-2-carboxamide] | – | – | – | – | – | – | – | – | – | – | 0 | 0 | 10 | 0 | 0 | 70 | 10 | 30 | 30 | 0 | PRE Application ABUTH, percentage damage on five-point scale ([1]; applied at 125 g/ha): 5 (5=80-100%); PRE Application AMARE, percentage damage on five-point scale ([2]; applied at 125 g/ha): 5 (5=80-100%); PRE Application ECHCG, percentage damage on five-point scale ([3]; applied at 125 g/ha): 5 (5=80-100%); PRE Application IPOHE, percentage damage on five-point scale ([4]; applied at 125 g/ha): 4 (4=60-79%); PRE Application SETFA, percentage damage on five-point scale (Setaria faberi (SETFA) [5]; applied at 125 g/ha): 5 (5=80-100%); POST Application ABUTH, percentage damage on five-point scale ([6]; applied at 125 g/ha): 4 (4=60-79%); POST Application AMARE, percentage damage on five-point scale ([7]; applied at 125 g/ha): 4 (4=60-79%); POST Application ECHCG, percentage damage on five-point scale ([8]; applied at 125 g/ha): 3 (3=40-59%); POST Application IPOHE, percentage damage on five-point scale ([9]; applied at 125 g/ha): 4 (4=60-79%); POST Application SETFA, percentage damage on five-point scale (Setaria faberi (SETFA) [10]; applied at 125 g/ha): 4 (4=60-79%); damage to plant SINAR (100=total damage to plant; 0=no damage to plant) (SINAR (Sinapis arvensis); 130 g/ha): 70; damage to plant SINAR (100=total damage to plant; 0=no damage to plant) (SINAR (Sinapis arvensis); 250 g/ha): 80
4 | CC(=O)N(C)c1c(OC(F)(F)F)ccc(C(=O)Nc2nnc(C)o2)c1Cl [Compound 2.003] | 5 (5=80-100%) | 5 (5=80-100%) | 5 (5=80-100%) | 4 (4=60-79%) | 5 (5=80-100%) | 5 (5=80-100%) | 5 (5=80-100%) | 5 (5=80-100%) | 5 (5=80-100%) | 5 (5=80-100%) | – | – | – | – | – | – | – | – | – | – | –
5 | Cc1nnc(NC(=O)c2ccc(OC(F)(F)F)c(N3CCCCC3=O)c2Cl)o1 [Compound 2.004] | 4 (4=60-79%) | 5 (5=80-100%) | 5 (5=80-100%) | 1 (1=0-19%) | 5 (5=80-100%) | 5 (5=80-100%) | 5 (5=80-100%) | 5 (5=80-100%) | 5 (5=80-100%) | 5 (5=80-100%) | – | – | – | – | – | – | – | – | – | – | –
